Here are results for 1 compound from publication PMC8895377, “In Vivo Targeting Replication Protein A for Cancer Therapy” (Frontiers in Oncology, 2022).

A short description of data set [1]: Chemical stability in lead formulation. It is filed as physicochemical. Conditions: for t90: 10 mg/ml in lead formulation; for predicted time stable: lead formulation; for fourteen-day stability: final formulation. How it is done:
With favorable potency, cellular activity, plasma stability, and a clear deficit in PK, we initiated a series of studies to assess and optimize a formulation of 329 for in vivo bioavailability. Here, 329 solubility was assessed in a series of additives, excipients, and co-solvents to identify initial favorable vehicles ( Table 2 ). […] A series of different formulations were assessed. The final formulation consisted of polysorbate 80, N-methyl-2-pyrrolidone (NMP), propylene glycol, and PEG 400 (+1.1 mol. eq. HCl added as 12 M HCl), and 329 was soluble up to 20 mg/ml, and 10-fold dilution in PBS was well dispersed with minimal precipitation.
Figure 7 The 329 in vivo analysis. (A) Stability analysis. Compound stability was assessed over a 14-day time period at varying temperatures as indicated. (B) Pharmacokinetic analysis. Time course of drug plasma concentration over 24 h following drug administration as indicated in legend.

Data set [2] has as its system A549 adenocarcinoma and H460 large cell carcinoma. Details: method as in doi:10.1101/2020.11.30.404640. Conditions: both models, differing dosing regimens, DMSO/Tween; cited from earlier work.
Data set [3] can be described thus: In vivo toxicity analysis.
Data set [4] deals with H460 cells. Description: DNA fiber analysis of replication fork dynamics. It is filed as cell-based, human. How it is done: Analysis of DNA replication intermediates was performed as previously described with minor modifications ([11], [12]). H460 cells were seeded in 6-well plates at a density of 2 × 10^5 cells. […] After harvesting, the cells were resuspended in PBS at a concentration of 1,000,000 cells/ml, and 2 µl of the cell suspension was mixed with 8 µl of lysis buffer (200 mM Tris-HCl pH 7.5, 50 mM EDTA, 0.5% SDS) on a Superfrost Plus microscope slide (Fisher Scientific). After 6 min of incubation, the slides were tilted at a 45-degree angle to allow cell lysates to slowly run down the slide. After air-drying, the slides were fixed in methanol:acetic acid (3:1) and stored at 4°C. DNA fibers were denatured with 2.5N HCl for 1 h, washed with PBS, and blocked with 5% BSA in PBS-T (PBS + 0.1% Tween-20) for 1 h. […] Excess antibodies were removed by washing with PBS-T 3 times. After air-drying, the slides were mounted onto a coverslip with mounting medium. Fiber tracts were imaged with a Nikon epifluorescence microscope using a 40× oil immersion objective, and 100 fibers for each group were analyzed in ImageJ where the ratios of CldU : IdU were compared using pixel length. Data were analyzed by ANOVA with Bonferroni test for multiple comparisons.
(A) Schematic depiction of experimental design. DNA was pulse-labeled with IdU for 20 min. After IdU removal, replication forks were stalled by the addition of HU or left to replicate with vehicle treatment. HU was removed, and replication was labeled with CldU. Following CldU, cells were treated with the DDRi or vehicle. […] Data presented are combined from three individual experiments (100 fibers analyzed per experiment; 300 fibers total). Red bar indicates the median value of CldU/IdU.

For data set [5], the system named is 60 cancer cell lines. Nature of the data set: Cell viability in 60 cancer cell lines (CellTiter-Glo). In kind it is cell-based. Conditions: 72 h, most values, read-out: cellular IC50. As for the experimental part:
In this study, 90-µl cell suspensions were seeded in 96-well plates in respective culture medium with a final cell density of 4 × 10^3 cells/well and incubated overnight. Here, 10× solution of 329 (top working concentration: 40 µM of test article in media with 3.16-fold serial dilutions to achieve 9 dose levels) was prepared, and 10 µl of drug solution or culture medium containing 0.5% DMSO (vehicle control) was added to the plate (triplicate for each drug concentration). Plates were incubated for 72 h at 37°C with 5% CO2 and then measured by CellTiter-Glo assay (Promega). Briefly, plates were equilibrated at room temperature for 30 min, and 50 µl of CellTiter-Glo reagent was added to each well. Contents were mixed for 5 min on an orbital shaker to induce cell lysis, and plates were further incubated at room temperature for 20 min to stabilize the luminescent signal. Luminescence was recorded using EnVision Multi Plate Reader. Percent cell growth was calculated relative to DMSO-treated cells (vehicle control), and the data were fit using non-linear regression analysis (GraphPad PRISM) to calculate cellular IC50.
Figure 4 Cellular activity of 329 in 60 cancer cell lines. Cell lines were treated with a 4-log range of replication protein A inhibitor (RPAi) 329 for 72 h. Cell viability was assessed using CellTiter-Glo luminescent viability assay. […]
On the technique in general: Cellular ATP, detected with luciferase, serves as a proxy for viable cell number.

The target in data set [6] is Escherichia coli single strand binding protein (SSB) (Escherichia coli, UniProt P0AGE0). Nature of the data set: EMSA internal specificity control, SSB–ssDNA complex. Conditions: internal specificity control in EMSA. How it is done: EMSAs were performed as previously described ([9]). Briefly, reactions were conducted in 20 mM HEPES (pH 7.8), 1 mM DTT, 0.001% NP-40, and 50 mM NaCl. RPAis were suspended in 100% dimethlysulfoxide (DMSO), and DMSO concentration in the final reaction mixture was constant at less than 5%. Purified full-length RPA (120 ng) was incubated with the indicated RPAi or vehicle in reaction buffer for 30 min before the addition of the [^32]P-labeled 34-base ssDNA probe. Reactions were incubated for 5 min at room temperature, and products were separated via 6% native polyacrylamide gel electrophoresis. The bound and unbound fractions were quantified by phosphor-imager analysis using ImageQuant software (Molecular Dynamics, CA), and data were fit by non-linear regression using GraphPad Prism.
Chain of Escherichia coli single strand binding protein (SSB) (P0AGE0 2-178): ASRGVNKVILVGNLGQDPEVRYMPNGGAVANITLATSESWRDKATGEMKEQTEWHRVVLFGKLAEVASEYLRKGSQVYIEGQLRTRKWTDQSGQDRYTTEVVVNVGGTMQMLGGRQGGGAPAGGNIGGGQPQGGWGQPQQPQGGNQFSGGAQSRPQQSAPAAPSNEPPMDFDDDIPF
Figure 2 Replication protein A inhibitor (RPAi) inhibitory activity. (A) Chemical structure of RPAi’s 329 and 2004. (B) EMSA analysis of RPA–DNA interaction inhibition by 329 and 2004. Lanes 3–6 in each panel contain 6.25, 12.5, 25, and 50 µM of the indicated RPAi, respectively. The * indicates the position of the Escherichia coli SSB–single-stranded DNA (ssDNA) complex that serves as an internal specificity control. (C) Cell viability of H460 NSCLC cells in response to 329 and 2004.
(Mobility shift assays separate free from complexed probe on a gel.)

Each structure is given as a SMILES string.

For the compound `CCOc1ccc2cc(C3CC(c4ccc(I)cc4)=NN3C(=O)CCCC(=O)NCCCN3CCOCC3)c(Cl)nc2c1` (centres unmarked) [compound 329], the t90 was 2100 days in data set [1] (5°C (extrapolated)), 140 days in data set [1] (25°C), 26 days in data set [1] (40°C) and 3.2 days in data set [1] (60°C). Moreover, the predicted time stable entry is recorded as “over 5 years” in data set [1] (5°C, extrapolated) and “over 3 months” in data set [1] (room temperature). For the same compound, the results for the fourteen-day stability entry in data set [1] (extended incubations at 60°C) and in data set [1] (up to 40°C) were “degradation was observed” and “very stable”, respectively. Moreover, the “single-agent anticancer activity in vivo” value in data set [2] was “only modest single-agent anticancer activity”. Moreover, the toxicity result in data set [3] (200 mg/kg in the new formulation) is given as “increased toxicity”; in data set [3] (dosing up to 200 mg/kg, suspension in DMSO/Tween), “no overt toxicity”. Also, the kidney function result in data set [3] (DMSO/Tween formulation, data not shown) is on record as “no differences from vehicle controls”. The body weight entry in data set [3] (up to 200 mg/kg, suspension in DMSO/Tween) was “no significant loss in body weight”. The “CldU/IdU signal after HU” value in data set [4] (H460, HU 2.5 mM then 329 50 µM or VE-822 2 µM) is reported as “significant decrease in CldU/IdU signal”. In addition, in data set [4] (H460, without HU, 329 50 µM, VE-822 2 µM, 2 h), the “CldU/IdU, inhibitor alone” value is listed as “minimal effects”. Also, in data set [5], the 50% inhibitory concentration (IC50) (as a rule, the point on the concentration scale where inhibition reaches its midpoint) lay within 5 to 10 µM. Besides, the “interaction of E. coli SSB with ssDNA” value in data set [6] is “not impacted”.
